ChEMBL document CHEMBL1156029, “The discovery of thienopyridine analogues as potent IkappaB kinase beta inhibitors. Part II” (Bioorg Med Chem Lett, 2009)
The source made the active and inactive calls. The rule behind the calls is not given here.

What was measured:
[1] = biological target: Mitogen-activated protein kinase 11 (Homo sapiens) (UniProt Q15759); assay: Inhibition of p38beta2 at 10 uM
[2] = biological target: Platelet-derived growth factor receptor alpha (Homo sapiens, UniProt P16234); assay: Inhibition of PDGFRalpha
[3] = biological target: Tyrosine-protein kinase CSK (Homo sapiens) (UniProt P41240); assay: Inhibition of CSK at 10 uM
[4] = Inhibition of PHOS Kinase at 10 uM
[5] = Inhibition of CK2 at 10 uM
[6] = biological target: Glycogen synthase kinase-3 beta (Homo sapiens) (UniProt P49841); assay: Inhibition of GSK3-beta at 10 uM
[7] = biological target: Vascular endothelial growth factor receptor 1 (Homo sapiens, UniProt P17948); assay: Inhibition of VEGFR1
[8] = biological target: T1, Mitogen-activated protein kinase 12 (Homo sapiens) (UniProt P53778); assay: Inhibition of p38-gamma at 10 uM
T1 sequence (whole entry): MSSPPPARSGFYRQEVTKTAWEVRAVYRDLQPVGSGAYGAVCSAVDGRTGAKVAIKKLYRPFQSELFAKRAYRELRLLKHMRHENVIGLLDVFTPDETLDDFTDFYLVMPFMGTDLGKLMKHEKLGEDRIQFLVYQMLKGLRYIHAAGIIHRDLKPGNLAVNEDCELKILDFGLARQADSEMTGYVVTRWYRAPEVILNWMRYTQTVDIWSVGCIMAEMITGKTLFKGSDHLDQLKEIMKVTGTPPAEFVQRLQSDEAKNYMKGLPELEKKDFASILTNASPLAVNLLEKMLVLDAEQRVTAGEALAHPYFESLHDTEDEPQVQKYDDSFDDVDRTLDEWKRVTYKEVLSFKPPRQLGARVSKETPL

[9] = Plasma concentration in mouse at 30 mg/kg, po after 120 mins; type: ADME, organism-based; design: dose 30 mg/kg, route oral
[10] = biological target: T2, Inhibitor of nuclear factor kappa-B kinase subunit beta (Homo sapiens, UniProt O14920); assay: Inhibition of Flag epitope-tagged IKK-beta preincubated for 5 mins by scintillation proximity assay
T2 sequence (O14920 whole entry): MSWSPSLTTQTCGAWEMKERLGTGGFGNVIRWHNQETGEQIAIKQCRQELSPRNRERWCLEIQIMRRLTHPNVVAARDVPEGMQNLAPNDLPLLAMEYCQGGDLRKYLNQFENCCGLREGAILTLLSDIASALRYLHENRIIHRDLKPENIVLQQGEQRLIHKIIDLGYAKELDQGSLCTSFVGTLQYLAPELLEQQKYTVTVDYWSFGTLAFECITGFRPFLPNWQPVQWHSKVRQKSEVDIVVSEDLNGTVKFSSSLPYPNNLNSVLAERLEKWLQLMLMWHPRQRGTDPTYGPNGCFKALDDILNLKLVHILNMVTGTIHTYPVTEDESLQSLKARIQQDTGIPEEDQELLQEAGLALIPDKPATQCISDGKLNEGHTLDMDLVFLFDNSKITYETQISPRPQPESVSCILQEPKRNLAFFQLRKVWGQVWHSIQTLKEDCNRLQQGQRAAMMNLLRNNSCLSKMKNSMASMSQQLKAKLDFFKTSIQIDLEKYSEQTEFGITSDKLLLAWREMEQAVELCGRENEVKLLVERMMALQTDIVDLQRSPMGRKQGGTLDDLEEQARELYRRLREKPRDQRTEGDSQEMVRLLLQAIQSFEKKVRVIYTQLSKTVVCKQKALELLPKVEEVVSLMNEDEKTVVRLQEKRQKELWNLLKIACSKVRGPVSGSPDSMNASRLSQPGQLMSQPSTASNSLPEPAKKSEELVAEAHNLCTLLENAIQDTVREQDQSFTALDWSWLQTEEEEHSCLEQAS

[11] = Inhibition of JNK/SAPK1c at 10 uM
[12] = biological target: Cyclin-dependent kinase 2/cyclin A (Homo sapiens) (UniProt P24941+P20248+P78396); assay: Inhibition of CDK2/cyclin A at 10 uM; type: protein-complex assay
[13] = biological target: Ribosomal protein S6 kinase beta-1 (Homo sapiens) (UniProt P23443); assay: Inhibition of S6K1 at 10 uM
[14] = tested on: Mus musculus; assay: Inhibition of LPS-induced TNFalpha production in mouse at 30 mg/kg, po administered 60 mins before LPS challenge; type: functional
[15] = biological target: T3, MAP kinase-activated protein kinase 5 (Homo sapiens) (UniProt Q8IW41); assay: Inhibition of PRAK at 10 uM
T3 sequence (whole entry): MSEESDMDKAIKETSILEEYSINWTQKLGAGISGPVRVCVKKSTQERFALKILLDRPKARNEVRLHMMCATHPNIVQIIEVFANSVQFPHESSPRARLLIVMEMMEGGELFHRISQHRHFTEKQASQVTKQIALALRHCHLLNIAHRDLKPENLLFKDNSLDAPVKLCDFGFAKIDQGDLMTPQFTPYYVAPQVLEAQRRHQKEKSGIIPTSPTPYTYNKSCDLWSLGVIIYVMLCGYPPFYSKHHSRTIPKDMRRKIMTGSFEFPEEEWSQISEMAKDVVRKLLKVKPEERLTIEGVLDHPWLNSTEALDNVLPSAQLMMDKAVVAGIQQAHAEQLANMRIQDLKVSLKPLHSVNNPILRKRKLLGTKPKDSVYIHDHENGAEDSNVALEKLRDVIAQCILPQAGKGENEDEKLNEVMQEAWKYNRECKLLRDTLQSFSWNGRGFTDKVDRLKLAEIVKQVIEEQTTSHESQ

[16] = Inhibition of PP2a at 10 uM
[17] = biological target: Fibroblast growth factor receptor 3 (Homo sapiens, UniProt P22607); assay: Inhibition of FGFR3
[18] = Plasma concentration in mouse at 100 mg/kg, po after 120 mins; type: ADME, organism-based; design: dose 100 mg/kg, route oral
[19] = biological target: Rho-associated protein kinase 2 (Homo sapiens) (UniProt O75116); assay: Inhibition of ROCK-2 at 10 uM
[20] = biological target: Ephrin type-A receptor 2 (Homo sapiens, UniProt P29317); assay: Inhibition of Eck
[21] = biological target: Protein kinase C alpha type (Homo sapiens) (UniProt P17252); assay: Inhibition of PKCalpha at 10 uM
[22] = biological target: Dual specificity tyrosine-phosphorylation-regulated kinase 1A (Homo sapiens) (UniProt Q13627); assay: Inhibition of DYRK1a at 10 uM
[23] = biological target: Insulin-like growth factor 1 receptor (Homo sapiens, UniProt P08069); assay: Inhibition of IGF1R
[24] = biological target: Tyrosine-protein kinase SYK (Homo sapiens, UniProt P43405); assay: Inhibition of Syk
[25] = biological target: Ribosomal protein S6 kinase alpha-1 (Homo sapiens) (UniProt Q15418); assay: Inhibition of MAPKAPK-1a at 10 uM
[26] = Inhibition of PKA at 10 uM
[27] = biological target: Tyrosine-protein kinase Lck (Homo sapiens) (UniProt P06239); assay: Inhibition of Lck at 10 uM
[28] = biological target: Insulin receptor (Homo sapiens, UniProt P06213); assay: Inhibition of IR
Chain of Insulin receptor (P06213 28-758 limits assumed): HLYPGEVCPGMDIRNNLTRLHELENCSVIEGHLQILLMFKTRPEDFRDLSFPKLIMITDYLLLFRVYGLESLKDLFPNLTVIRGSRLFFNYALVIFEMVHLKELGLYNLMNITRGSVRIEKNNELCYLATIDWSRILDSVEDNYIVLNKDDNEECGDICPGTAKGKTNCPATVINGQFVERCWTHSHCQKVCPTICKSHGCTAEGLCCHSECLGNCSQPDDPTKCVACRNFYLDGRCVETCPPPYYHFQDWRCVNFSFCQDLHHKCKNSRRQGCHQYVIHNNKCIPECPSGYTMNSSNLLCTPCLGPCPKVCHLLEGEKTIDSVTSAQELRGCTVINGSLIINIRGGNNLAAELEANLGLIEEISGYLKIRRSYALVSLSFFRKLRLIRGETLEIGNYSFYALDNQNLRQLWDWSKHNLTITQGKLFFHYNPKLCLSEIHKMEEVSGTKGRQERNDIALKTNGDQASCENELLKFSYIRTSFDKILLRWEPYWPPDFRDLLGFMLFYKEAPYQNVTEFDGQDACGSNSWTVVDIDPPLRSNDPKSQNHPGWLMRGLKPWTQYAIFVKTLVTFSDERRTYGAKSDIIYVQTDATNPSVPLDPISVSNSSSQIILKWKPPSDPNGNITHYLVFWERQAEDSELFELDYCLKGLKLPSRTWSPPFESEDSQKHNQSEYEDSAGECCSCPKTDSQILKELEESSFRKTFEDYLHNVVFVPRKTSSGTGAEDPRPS
Chain of Insulin receptor (P06213 763-1382 limits assumed): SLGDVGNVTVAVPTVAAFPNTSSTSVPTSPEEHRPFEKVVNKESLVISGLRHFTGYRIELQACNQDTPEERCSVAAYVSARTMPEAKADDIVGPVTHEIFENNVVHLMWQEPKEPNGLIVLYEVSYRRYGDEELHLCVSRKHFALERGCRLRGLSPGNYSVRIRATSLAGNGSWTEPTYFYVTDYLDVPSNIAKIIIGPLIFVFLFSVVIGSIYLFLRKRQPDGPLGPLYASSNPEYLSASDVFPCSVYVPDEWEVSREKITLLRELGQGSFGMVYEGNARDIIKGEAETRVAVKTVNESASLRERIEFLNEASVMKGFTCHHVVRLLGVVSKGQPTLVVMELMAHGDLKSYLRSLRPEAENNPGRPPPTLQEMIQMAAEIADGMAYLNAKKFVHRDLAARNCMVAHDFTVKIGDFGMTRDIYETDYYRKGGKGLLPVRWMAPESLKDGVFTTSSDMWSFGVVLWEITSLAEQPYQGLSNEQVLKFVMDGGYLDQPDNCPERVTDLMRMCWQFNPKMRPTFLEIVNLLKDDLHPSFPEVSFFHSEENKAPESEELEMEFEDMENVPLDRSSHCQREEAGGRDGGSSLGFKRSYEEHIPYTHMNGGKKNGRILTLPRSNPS

Chain of Vascular endothelial growth factor receptor 1 (P17948 whole entry): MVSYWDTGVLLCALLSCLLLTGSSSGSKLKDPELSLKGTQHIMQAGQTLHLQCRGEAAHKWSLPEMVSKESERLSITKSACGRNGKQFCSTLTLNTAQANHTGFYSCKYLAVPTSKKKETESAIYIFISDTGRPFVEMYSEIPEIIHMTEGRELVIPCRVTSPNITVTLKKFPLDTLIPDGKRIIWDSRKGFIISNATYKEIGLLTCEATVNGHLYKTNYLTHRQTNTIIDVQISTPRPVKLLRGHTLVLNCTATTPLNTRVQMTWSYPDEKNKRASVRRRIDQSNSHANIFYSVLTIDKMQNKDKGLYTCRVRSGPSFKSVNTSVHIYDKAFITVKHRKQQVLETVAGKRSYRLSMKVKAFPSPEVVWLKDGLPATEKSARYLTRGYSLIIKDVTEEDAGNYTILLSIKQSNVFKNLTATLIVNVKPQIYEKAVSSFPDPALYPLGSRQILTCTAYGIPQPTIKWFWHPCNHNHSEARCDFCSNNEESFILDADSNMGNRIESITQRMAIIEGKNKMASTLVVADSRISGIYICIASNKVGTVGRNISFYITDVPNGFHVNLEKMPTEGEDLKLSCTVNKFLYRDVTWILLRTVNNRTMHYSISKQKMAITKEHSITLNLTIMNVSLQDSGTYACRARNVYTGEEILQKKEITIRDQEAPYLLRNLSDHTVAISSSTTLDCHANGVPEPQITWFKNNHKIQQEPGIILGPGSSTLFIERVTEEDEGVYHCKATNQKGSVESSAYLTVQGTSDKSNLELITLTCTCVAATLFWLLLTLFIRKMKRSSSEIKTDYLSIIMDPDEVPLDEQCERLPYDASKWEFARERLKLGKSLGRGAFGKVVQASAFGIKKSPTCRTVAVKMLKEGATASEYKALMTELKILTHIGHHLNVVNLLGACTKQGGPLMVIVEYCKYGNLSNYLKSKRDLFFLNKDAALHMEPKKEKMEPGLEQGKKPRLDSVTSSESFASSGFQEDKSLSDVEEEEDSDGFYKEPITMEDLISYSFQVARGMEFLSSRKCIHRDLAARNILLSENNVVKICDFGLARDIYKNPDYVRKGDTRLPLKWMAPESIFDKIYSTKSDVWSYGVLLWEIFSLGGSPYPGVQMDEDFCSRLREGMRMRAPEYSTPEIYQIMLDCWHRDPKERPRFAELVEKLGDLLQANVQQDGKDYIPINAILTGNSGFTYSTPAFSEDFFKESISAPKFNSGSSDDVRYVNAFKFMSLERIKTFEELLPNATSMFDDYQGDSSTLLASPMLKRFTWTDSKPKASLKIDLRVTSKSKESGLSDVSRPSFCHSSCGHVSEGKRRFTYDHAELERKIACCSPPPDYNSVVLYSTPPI
Chain of Tyrosine-protein kinase Lck (Homo sapiens) (P06239 2-509 limits assumed): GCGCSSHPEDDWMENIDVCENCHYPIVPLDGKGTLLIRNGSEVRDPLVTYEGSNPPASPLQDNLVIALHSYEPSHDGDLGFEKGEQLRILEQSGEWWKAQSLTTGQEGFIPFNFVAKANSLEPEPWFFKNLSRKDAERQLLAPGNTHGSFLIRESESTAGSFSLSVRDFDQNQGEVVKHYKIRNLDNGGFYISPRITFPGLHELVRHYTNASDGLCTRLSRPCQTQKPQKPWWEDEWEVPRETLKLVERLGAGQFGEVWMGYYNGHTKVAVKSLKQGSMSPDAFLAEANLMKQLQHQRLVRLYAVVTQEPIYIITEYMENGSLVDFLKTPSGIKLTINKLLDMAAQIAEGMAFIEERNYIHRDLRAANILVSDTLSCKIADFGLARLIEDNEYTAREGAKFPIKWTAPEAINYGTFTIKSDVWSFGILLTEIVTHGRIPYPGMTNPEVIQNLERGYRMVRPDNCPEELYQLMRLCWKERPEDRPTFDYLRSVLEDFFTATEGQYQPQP
Chain of Glycogen synthase kinase-3 beta (Homo sapiens) (P49841 whole entry, looked up): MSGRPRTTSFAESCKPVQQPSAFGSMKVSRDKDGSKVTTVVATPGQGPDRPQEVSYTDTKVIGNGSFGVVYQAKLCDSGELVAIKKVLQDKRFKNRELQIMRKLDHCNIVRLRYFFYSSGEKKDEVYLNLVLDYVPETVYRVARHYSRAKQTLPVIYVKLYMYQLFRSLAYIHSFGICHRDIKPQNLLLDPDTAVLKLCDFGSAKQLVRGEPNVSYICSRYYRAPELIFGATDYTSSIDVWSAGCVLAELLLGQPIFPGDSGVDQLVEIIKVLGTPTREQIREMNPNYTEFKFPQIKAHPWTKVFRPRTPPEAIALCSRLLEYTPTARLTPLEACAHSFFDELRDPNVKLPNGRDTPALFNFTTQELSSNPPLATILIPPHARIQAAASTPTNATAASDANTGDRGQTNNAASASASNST
Chain of Ribosomal protein S6 kinase beta-1 (Homo sapiens) (P23443 whole entry, looked up): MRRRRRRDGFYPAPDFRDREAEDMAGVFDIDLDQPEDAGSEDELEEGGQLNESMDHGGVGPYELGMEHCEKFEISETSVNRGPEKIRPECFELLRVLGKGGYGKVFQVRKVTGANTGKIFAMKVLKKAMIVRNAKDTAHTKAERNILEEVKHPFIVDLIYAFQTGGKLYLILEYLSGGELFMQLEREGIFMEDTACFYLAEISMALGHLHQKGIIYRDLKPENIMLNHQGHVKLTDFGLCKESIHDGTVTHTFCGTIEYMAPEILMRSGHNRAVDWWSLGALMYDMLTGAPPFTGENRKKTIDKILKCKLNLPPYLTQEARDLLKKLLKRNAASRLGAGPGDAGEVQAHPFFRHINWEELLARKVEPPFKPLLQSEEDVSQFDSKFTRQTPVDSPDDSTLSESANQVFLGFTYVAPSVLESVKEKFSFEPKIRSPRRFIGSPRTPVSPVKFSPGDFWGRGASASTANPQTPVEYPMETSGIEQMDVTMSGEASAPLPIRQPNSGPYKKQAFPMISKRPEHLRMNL
Chain of Ribosomal protein S6 kinase alpha-1 (Homo sapiens) (Q15418 whole entry): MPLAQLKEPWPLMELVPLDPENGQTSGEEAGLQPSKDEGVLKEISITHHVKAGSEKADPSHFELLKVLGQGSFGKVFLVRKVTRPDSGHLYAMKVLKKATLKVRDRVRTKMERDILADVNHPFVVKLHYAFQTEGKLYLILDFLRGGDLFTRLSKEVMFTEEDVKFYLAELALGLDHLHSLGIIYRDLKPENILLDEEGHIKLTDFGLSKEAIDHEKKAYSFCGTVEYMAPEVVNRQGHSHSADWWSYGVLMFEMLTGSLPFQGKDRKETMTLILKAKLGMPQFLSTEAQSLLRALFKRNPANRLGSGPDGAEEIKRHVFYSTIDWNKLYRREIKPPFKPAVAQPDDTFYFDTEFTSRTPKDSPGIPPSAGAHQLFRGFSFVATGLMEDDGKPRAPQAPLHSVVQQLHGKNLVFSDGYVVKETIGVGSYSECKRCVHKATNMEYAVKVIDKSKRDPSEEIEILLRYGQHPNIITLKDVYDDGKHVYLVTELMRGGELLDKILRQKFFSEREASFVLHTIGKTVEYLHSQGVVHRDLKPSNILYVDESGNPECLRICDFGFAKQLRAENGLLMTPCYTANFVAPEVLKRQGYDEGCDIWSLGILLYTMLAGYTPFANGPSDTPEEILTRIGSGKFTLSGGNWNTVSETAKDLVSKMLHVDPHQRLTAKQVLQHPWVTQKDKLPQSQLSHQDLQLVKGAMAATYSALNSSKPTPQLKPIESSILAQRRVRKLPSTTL

Row | Activity [1] | IC50 [2] [µM] | Activity [3] | Activity [4] | Activity [5] | Activity [6] | IC50 [7] [µM] | Activity [8] | concentration at 2 h [9] [µM] | IC50 [10] [µM] | Activity [11] | Activity [12] | Activity [13] | Activity [15] | Activity [16] | IC50 [17] [µM] | concentration at 2 h [18] [µM] | Activity [19] | IC50 [20] [µM] | SMILES | inhibition in vivo at 30 mg/kg [14] [%] | further results
1 | inactive | 0.3 | inactive | inactive | inactive | inactive | > 7 | inactive | < 0.01 | 0.12 | inactive | inactive | inactive | inactive | inactive | > 7 | 3.5 | inactive | > 7 | CCCc1cc(N2CCNCC2)nc2sc(C(N)=O)c(N)c12 | 35 | Activity [21]: inactive; Activity [22]: inactive; IC50 [23]: > 7 µM; IC50 [24]: > 7 µM; Activity [25]: inactive; Activity [26]: inactive; Activity [27]: inactive
2 | inactive | > 7 | inactive | inactive | inactive | inactive | > 7 | inactive | 15.5 | 0.28 | inactive | inactive | inactive | inactive | inactive | > 7 | 42.3 | inactive | > 7 | CCCc1cc(N2CCC(O)CC2)nc2sc(C(N)=O)c(N)c12 | 94 | IC50 [28]: > 7 µM; Activity [21]: inactive; Activity [22]: inactive; IC50 [23]: > 7 µM; IC50 [24]: > 7 µM; Activity [25]: inactive; Activity [26]: inactive; Activity [27]: inactive
3 | inactive | > 7 | inactive | inactive | inactive | inactive | > 7 | inactive | 3.1 | 0.57 | inactive | inactive | inactive | inactive | inactive | > 7 | 22.5 | inactive | > 7 | CCCc1cc(N2CCCC(O)C2)nc2sc(C(N)=O)c(N)c12 (stereo not given) | 67 | IC50 [28]: > 7 µM; Activity [21]: inactive; Activity [22]: inactive; IC50 [23]: > 7 µM; Activity [25]: inactive; Activity [26]: inactive; Activity [27]: inactive
4 | inactive | > 7 | inactive | inactive | inactive | inactive | > 7 | inactive | 0.02 | 0.041 | inactive | inactive | inactive | inactive | inactive | > 7 | 2.8 | inactive | > 7 | CCCc1cc(N2CCC(N)CC2)nc2sc(C(N)=O)c(N)c12 | 14 | IC50 [28]: > 7 µM; Activity [21]: inactive; Activity [22]: inactive; IC50 [23]: > 7 µM; IC50 [24]: > 7 µM; Activity [25]: inactive; Activity [26]: inactive; Activity [27]: inactive
